Like-named read-outs stand apart in the source and are kept apart here.

How the values of series [1] were obtained: Shed snakeskin, which is a model membrane to human skin used for preliminary permeability studies due to its similarity in composition to the human stratum corneum, was used as a skin model. The solution in the receiver compartment was maintained at 37° C. and stirred at 500 rpm with a magnetic stirrer. Before each experiment, the shed snakeskin was hydrated in 7.4 pH Dulbecco's Phosphate Buffered Saline (DPBS) containing 0.1% sodium azide solution for 24 hours at room temperature.
To emulate the esterase activity of human skin, a “sandwich” of shed snakeskin from a black rat snake (Pantherophis obsoletus) and a dialysis membrane with a molecular weight cut-off of 3.5 kDa (Cole-Palmer, Spectra Por S/P 3 EW-02900-04) was designed. Recombinant Human Carboxylesterase 2/CES2 (R&D Systems, #5657-CE) at a concentration 50 μg/mL was added between the snakeskin and the dialysis membrane (FIG. 1). A diffusion area of 0.64 cm^2 and a volume of 2 mL in the donor and receiver compartments were used. The temperature in Franz cell was controlled via thermocouple probe IT-23 (World Precision Instruments, Sarasota, FL, USA) placed in receiver compartment below the membrane “sandwich” through the sampling arm. All tested compounds were solubilized in 50% polyethylene glycol 400 (PEG 400)/DPBS at 25 mg/mL. PEG 400 was used to increase the water solubility of diethyl cromoglycate, cetirizine ethyl ester and cetirizine cromoglycate.
The system was allowed to equilibrate for one hour before each experiment. […] The receiver compartment was filled with 2 mL of 50% w/w polyethylene glycol 400 in DPBS to maintain a sink condition in the receiver solution. A sample was manually taken at 1-hour intervals from the receptor compartment and replaced with fresh DPBS at each time point. The concentration of drugs and their cumulative amount was plotted against time. Each experiment with each compound was performed in triplicate. The amount of the drug in the sample was estimated spectrophotometrically (NanoDrop™ UV-Visible spectrophotometer, Thermo Fisher Scientific Inc.). Light absorption was plotted as a function of concentration and fitted with a linear regression equation.

The conditions of series [2]: normal pH of 7.4; cited from earlier work.
Setting [3] is: black rat snake (Pantherophis obsoletus), 0 h, 25 mg/mL.
The mark [4] stands for this setting: black rat snake (Pantherophis obsoletus), 25 mg/mL.
Setting [5] is: black rat snake (Pantherophis obsoletus), 1 h, 25 mg/mL.
The mark [6] stands for this setting: black rat snake (Pantherophis obsoletus), 2 h, 25 mg/mL.
Setting [7] is: black rat snake (Pantherophis obsoletus), 3 h, 25 mg/mL.
[8] abbreviates: black rat snake (Pantherophis obsoletus), 4 h, 25 mg/mL.
Setting [9] is: black rat snake (Pantherophis obsoletus), 5 h, 25 mg/mL.
The mark [10] stands for this setting: black rat snake (Pantherophis obsoletus), 6 h, 25 mg/mL.
Where [11] appears, read: black rat snake (Pantherophis obsoletus), 7 h, 25 mg/mL.
Where [12] appears, read: black rat snake (Pantherophis obsoletus), 8 h, 25 mg/mL.
[13] abbreviates: black rat snake (Pantherophis obsoletus), 9 h, 25 mg/mL.
Setting [14] is: black rat snake (Pantherophis obsoletus), 10 h, 25 mg/mL.
[15] abbreviates: black rat snake (Pantherophis obsoletus), 11 h, 25 mg/mL.
Where [16] appears, read: black rat snake (Pantherophis obsoletus), 12 h, 25 mg/mL.

For the compound `CCOC(=O)COCCN1CCN(C(c2ccccc2)c2ccc(Cl)cc2)CC1` (stereo not drawn) [Cetirizine Ethyl Ester, reference compound], the “mean lag times across shed snakeskin” value in series [1] lay within 0.15 to 0.25 h.
`O=C(O)c1cc(=O)c2c(OCC(O)COc3cccc4oc(C(=O)O)cc(=O)c34)cccc2o1` [Cromoglicate Sodium, Cromoglicate sodium, reference compound]: the “Cumulative concentration per unit area” value in series [1] (setting [3]) is 0 μg/cm^2; in series [1] (setting [5]), 5 μg/cm^2; in series [1] (setting [6]), 15 μg/cm^2; in series [1] (setting [7]) it was 25 μg/cm^2; in series [1] (setting [8]), 30 μg/cm^2; in series [1] (setting [9]) it was 45 μg/cm^2. Further, the “Cumulative concentration per unit area” value in series [1] (setting [10]) is reported as 50 μg/cm^2; in series [1] (setting [11]), 73 μg/cm^2; in series [1] (setting [12]) it was 80 μg/cm^2; in series [1] (setting [13]), 93 μg/cm^2; in series [1] (setting [14]) it was 98 μg/cm^2; in series [1] (setting [15]), 112 μg/cm^2. The “Cumulative concentration per unit area” value in series [1] (setting [16]) turned out to be 119 μg/cm^2. Besides, in series [1] (setting [4]), the “permeation across the shed snakeskin, times lower than the permeation of the lipophilic prodrug” value is 3.5-5 times. Also, the logP (commonly a log measure of how a compound divides between an organic and an aqueous phase) in series [2] is recorded as −4.8.
`O=C(COCCN1CCN(C(c2ccccc2)c2ccc(Cl)cc2)CC1)OC(COc1cccc2oc(C(=O)O)cc(=O)c12)COc1cccc2oc(C(=O)O)cc(=O)c12` (stereo not drawn) [Example 3]: the “transport compared with the permeation of lipophilic prodrugs diethyl cromoglycate and cetirizine ethyl ester” value in series [1] is given as “lower”. The “Cumulative concentration per unit area” value is 0 μg/cm^2 in series [1] (setting [3]); 2 μg/cm^2 in series [1] (setting [5]); 12 μg/cm^2 in series [1] (setting [6]); 28 μg/cm^2 in series [1] (setting [7]); 53 μg/cm^2 in series [1] (setting [8]); 89 μg/cm^2 in series [1] (setting [9]). Further, the “Cumulative concentration per unit area” value in series [1] (setting [10]) amounted to 112 μg/cm^2; in series [1] (setting [11]), 142 μg/cm^2; in series [1] (setting [12]) it was 176 μg/cm^2; in series [1] (setting [13]), 215 μg/cm^2; in series [1] (setting [14]), 256 μg/cm^2; in series [1] (setting [15]), 295 μg/cm^2. For the same compound, in series [1] (setting [16]), the “Cumulative concentration per unit area” value was 350 μg/cm^2. In addition, the “mean lag times across shed snakeskin” value in series [1] (setting [4]) lay in the range of 0.55 to 1.15 h.
As to `CCOC(=O)c1cc(=O)c2c(OCC(O)COc3cccc4oc(C(=O)OCC)cc(=O)c34)cccc2o1` [Example 50, Diethyl Cromoglicate], the “Cumulative concentration per unit area” value is given as 0 μg/cm^2 in series [1] (setting [3]); 23 μg/cm^2 in series [1] (setting [5]); 55 μg/cm^2 in series [1] (setting [6]); 95 μg/cm^2 in series [1] (setting [7]); 145 μg/cm^2 in series [1] (setting [8]); 195 μg/cm^2 in series [1] (setting [9]). Also, the “Cumulative concentration per unit area” value in series [1] (setting [10]) came to 235 μg/cm^2; in series [1] (setting [11]), 256 μg/cm^2; in series [1] (setting [12]), 320 μg/cm^2; in series [1] (setting [13]) it was 390 μg/cm^2; in series [1] (setting [14]), 435 μg/cm^2; in series [1] (setting [15]), 470 μg/cm^2. In series [1] (setting [16]), the “Cumulative concentration per unit area” value is recorded as 495 μg/cm^2. In addition, in series [1] (setting [4]), the “mean lag times across shed snakeskin” value lay within 0.15 to 0.25 h.

(Values after patent publication US20250269041A1, “Mutual Prodrugs of Cromoglicic Acid” (Samdolite Pharmaceuticals, Inc., priority 2022, published 2025).)
